Measured values: patent US20250214977A1, “STAT6 INHIBITORS AND USES THEREOF” (Kymera Therapeutics, Inc., priority 2024, published 2025)

tested on: Phosphorylation of STAT6 in human A549 cells; experiment: Phosphorylated STAT6 (pSTAT6) flow cytometry assay in human A549 cells; format: cell-based; details: read-out: STAT6 IL4 pSTAT6 assay in A549 cells: Average IC50
Text: Example 3. Phosphorylated STAT6 (pSTAT6) Flow Cytometry Assay in Human A549 Cells
Phosphorylation of STAT6 in human A549 cells was quantitatively measured using flow cytometry technology.

Row | Compound | IC50 [nM]
1 | Methyl 5-(3-(5-(2-(dimethylcarbamoyl)benzofuran-5-yl)-1,2,3,6-tetrahydropyridine-1-carbonyl)-2-formyl-1,2,3,4-tetrahydroisoquinolin-5-yl)pent-4-ynoate [Example I-802] | < 100
2 | CCc1ccncc1-c1cc(C2=CCCN(C(=O)CCn3ccnn3)C2)c(F)c2[nH]c(C(=O)N3CCN(c4ncc(Cl)cc4OC)CC3)cc12 [Example I-472] | < 100
3 | COc1ccccc1-c1cc(C2=CCCN(C(=O)CCn3ccnn3)C2)c(F)c2[nH]c(C(=O)N3CCN(c4ncccc4OC(F)(F)F)CC3)cc12 [Example I-331, 1-(5-(7-fluoro-4-(2-methoxyphenyl)-2-(4-(3-(trifluoromethoxy)pyridin-2-yl)piperazine-1-carbonyl)-1H-indol-6-yl)-3,6-dihydropyridin-1(2H)-yl)-3-(1H-1,2,3-triazol-1-yl)propan-1-one] | < 100
4 | CCc1ccc(OC)c(N2CCN(C(=O)c3cc4c(-c5cnccc5OC)cc(C5=CCCN(C(=O)CCn6ccnn6)C5)c(F)c4[nH]3)CC2)n1 [Example I-466] | < 100
5 | CCOc1ccncc1-c1cc(C2=CCCN(C(=O)CCn3ccnn3)C2)c(F)c2[nH]c(C(=O)N3CCN(c4cncnc4OC)CC3)cc12 [Example I-470] | < 100
6 | COc1cc(F)cnc1N1CCN(C(=O)c2cc3c(-c4cnc5ccccc5c4OC)cc(C4=CCCN(C(=O)CCn5ccnn5)C4)c(F)c3[nH]2)CC1 [Example I-468] | < 100
7 | CN(C)C(=O)c1cc2ccc(C3=CCCN(C(=O)CCc4ccno4)C3)cc2[nH]1 [Example I-829] | 100 to 1000
8 | COc1cccnc1N1CCN(C(=O)c2cc3c(-c4cn(C)nc4C)cc(C4=CCCN(C(=O)CCn5ccnn5)C4)c(F)c3[nH]2)CC1 [Example I-574] | < 100
9 | CCc1nc(C)ccc1-c1cc(C(=O)N2CCN(C3CC3)CC2)cc2c(F)c(C3=CCCN(C(=O)CCn4ccnn4)C3)n(CC3CC3)c12 [Example I-548] | > 100000
10 | CN(C)C(=O)c1cc2c(F)c(C3=CCCN(C(=O)[C@H]4Cc5ccccc5CN4C=O)C3)ccc2o1 (single isomer, unassigned) [Example I-376] | > 100000
11 | CCC1=C(c2cc(C3=CCCN(C(=O)CCn4ccnn4)C3)c(F)c3[nH]c(C(=O)N4CCN(c5ncc(F)cc5OC)CC4)cc23)CCNC1 [Example I-731] | < 100
12 | CCn1nccc1-c1cc(C(=O)N2Cc3cnn(CC)c3C2)cc2cc(C3=CCCN(C(=O)CCn4ccnn4)C3)n(CC3CC3)c12 [Example I-544] | < 100
13 | COc1ccncc1-c1cc(C2=CCCN(C(=O)CCn3ccnn3)C2)c(F)c2[nH]c(C(=O)N3CCN(c4ccc(C(F)(F)F)cc4OC)CC3)cc12 [Example I-463] | < 100
14 | COc1ccccc1-c1cc(C2=CCCN(C(=O)CCn3ccnn3)C2)c(F)c2[nH]c(C(=O)N3CCN(c4ncccc4C4CC4)CC3)cc12 [Example I-495] | > 100000
15 | COc1ccc(F)cc1-c1cc(C2=CCCN(C(=O)CCn3ccnn3)C2)c(F)c2[nH]c(C(=O)N3CCN(c4ccccc4OC)CC3)cc12 [Example I-566] | < 100
16 | COc1ccccc1-c1cc(C2=CCCN(C(=O)CCn3ccnn3)C2)c(F)c2[nH]c(C(=O)N3CCN(c4ncc(C5CC5)cc4OC)CC3)cc12 [Example I-354] | < 100
17 | CCn1ncc2c1CN(C(=O)c1cc(C3CC3)c3c(c1)cc(C1=CCCN(C(=O)CCn4ccnn4)C1)n3CC1CC1)C2 [Example I-768] | > 100000

Row | Compound | IC50 [nM]
18 | COc1ccncc1-c1cc(C2=CCCN(C(=O)CCn3ccnn3)C2)c(F)c2[nH]c(C(=O)N3CCN(c4ccc(F)c(OC)c4F)CC3)cc12 [Example I-492] | > 100000
19 | COc1ccccc1-c1cc(C2=CCCN(C(=O)CCn3ccnn3)C2)c(F)c2[nH]c(C(=O)N3CCN(c4ncccc4Cl)CC3)cc12 [Example I-324] | < 100
20 | CCc1cccnc1N1CCN(C(=O)c2cc3c(-c4ccccc4OC)cc(C4=CCCN(C(=O)CCn5ccnn5)C4)c(F)c3[nH]2)CC1 [Example I-327] | < 100
21 | COc1cc(F)cnc1N1CCN(C(=O)c2cc3c(-c4cccc(CO)c4C)cc(C4=CCCN(C(=O)CCn5ccnn5)C4)c(F)c3[nH]2)CC1 [Example I-616] | > 100000
22 | CCc1cnccc1-c1cc(C2=CCCN(C(C)=O)C2)c(F)c2[nH]c(C(=O)N3Cc4cnn(C)c4C3)cc12 [Example I-705] | 10000 to 100000
23 | COc1ccncc1-c1cc(C2=CCCN(C(=O)CCn3ccnn3)C2)c(F)c2[nH]c(C(=O)N3CC=C(c4ncc(F)cc4OC)CC3)cc12 [Example I-442] | < 100
24 | CCc1ccc(-c2cc(C(=O)N3CCN(c4ncc(F)cc4OC)CC3)cc3cc(C4=CCCN(C(=O)C5CC5C(=O)O)C4)n(CC4CC4)c23)c(C)n1 (stereo not shown) [Example I-545] | < 100
25 | COc1cnccc1-c1cc(C2=CCCN(C(C)=O)C2)c(F)c2[nH]c(C(=O)N3CCN(c4ncc(F)cc4OC)CC3)cc12 [Example I-697] | > 100000
26 | COc1ccncc1-c1cc(C2=CCCN(C(=O)CCn3ccnn3)C2)c(F)c2[nH]c(C(=O)N3CCN(C4CC4)CC3)cc12 [Example I-587] | < 100
27 | COc1cccnc1N1CCN(C(=O)c2cc3c(-c4ccccc4C#N)cc(C4=CCCN(C(=O)CCn5ccnn5)C4)c(F)c3[nH]2)CC1 [Example I-573] | < 100
28 | CCc1cc(C)ncc1-c1cc(C2=CCCN(C(=O)CCc3nccs3)C2)c(F)c2[nH]c(C(=O)N3Cc4cnn(CC)c4C3)cc12 [Example I-538] | < 100
29 | COc1cc(Cl)cnc1N1CCN(C(=O)c2cc3c(-c4cc(F)cc(F)c4OC)cc(C4=CCCN(C(=O)CCn5ccnn5)C4)c(F)c3[nH]2)CC1 [Example I-462] | 100 to 1000
30 | COc1cc(F)cnc1N1CCN(C(=O)c2cc3c(-c4ccc5nn(C)cc5c4)cc(C4=CCCN(C(=O)CCn5ccnn5)C4)c(F)c3[nH]2)CC1 [Example I-624] | < 100
31 | COC(=O)CCC#Cc1cc(C2=CCCN(C(=O)C3Cc4ccccc4CN3C=O)C2)cc2cc(C(=O)N(C)C)oc12 (stereo not shown) [Example I-823] | < 100
32 | COc1cc(F)cnc1N1CCN(C(=O)c2cc3c(C4=CCOC4)cc(C4=CCCN(C(=O)CCn5ccnn5)C4)c(F)c3[nH]2)CC1 [Example I-639] | < 100
33 | CCc1ccc(-c2cc(C(=O)N3CCN(c4ncc(F)cc4OC)CC3)cc3cc(C4=CCCN(C(C)=O)C4)n(CC4CC4)c23)c(C)n1 [Example I-793] | < 100

Now from value to compound:

Row | IC50 [nM] | Compound
34 | 100 to 1000 | COc1cc(F)cnc1N1CCN(C(=O)c2cc3c(C4=Cc5ccccc5C4)cc(C4=CCCN(C(=O)CCn5ccnn5)C4)c(F)c3[nH]2)CC1 [Example I-1161]
35 | < 100 | COc1ccccc1-c1cc(C2=CCCN(C(=O)CCn3ccnn3)C2)c(F)c2[nH]c(C(=O)N3CC(Oc4cccnc4)C3)cc12 [Example I-992]
36 | < 100 | COc1cc(F)cnc1N1CCN(C(=O)c2cc3c(C4=CCN(C(C)C)CC4)cc(C4=CCCN(C(=O)CCn5ccnn5)C4)c(F)c3[nH]2)CC1 [Example I-1133]
37 | < 100 | COc1ccccc1-c1cc(C2=CCCN(C(=O)CCn3ccnn3)C2)c(F)c2[nH]c(C(=O)N3CCN(c4ccc(=O)n(C)c4)CC3)cc12 [Example I-971]
38 | < 100 | CN(C)C(=O)c1cc2c(C3CCCCC3)cc([C@H]3CCCN(C(=O)CCn4cccn4)C3)c(F)c2[nH]1 [Example I-840]
39 | 100 to 1000 | CCn1nccc1-c1cc(C(=O)N2Cc3cnn(CC)c3C2)cc2cc(C3=CCCN(C(C)=O)C3)n(CC3CC3)c12 [Example I-1045]
40 | < 100 | COc1ccccc1-c1cc(C2=CCCN(C(=O)CCn3ccnn3)C2)c(F)c2[nH]c(C(=O)N3CCN(c4cc5ccccc5nc4O)CC3)cc12 [Example I-952]
41 | < 100 | COc1ccccc1-c1cc(C2=CCCN(C(=O)CCn3ccnn3)C2)c(F)c2[nH]c(C(=O)N3CCN(c4ccc5cn[nH]c5c4)CC3)cc12 [Example I-963]
42 | 100 to 1000 | CN(C)C(=O)c1cc2ccc(C3=CCCN(C(=O)CCc4ccon4)C3)cc2[nH]1 [Example I-831]
43 | 100 to 1000 | COc1ccccc1-c1cc(C2=CCCN(C(=O)CCn3ccnn3)C2)c(F)c2[nH]c(C(=O)N(C)C3Cc4ccccc4C3)cc12 [Example I-978]
44 | < 100 | COc1ccccc1-c1cc(C2=CCCN(C(=O)CCn3ccnn3)C2)c(F)c2[nH]c(C(=O)N3CCN(c4nc5ccccc5n4CC4CC4)CC3)cc12 [Example I-943]
45 | < 100 | COc1ccccc1-c1cc(C2=CCCN(C(=O)CCn3ccnn3)C2)c(F)c2[nH]c(C(=O)N3CCN(c4ccccn4)C(=O)C3)cc12 [Example I-1008]
46 | < 100 | COc1ccccc1-c1cc(C2=CCCN(C(=O)CCn3ccnn3)C2)c(F)c2[nH]c(C(=O)N3CCN(c4nccc5[nH]ccc45)CC3)cc12 [Example I-966]
47 | < 100 | COc1cc(F)cnc1N1CCN(C(=O)c2cc3c(C4=CCC(F)(F)CC4)cc(C4=CCCN(C(=O)CCn5ccnn5)C4)c(F)c3[nH]2)CC1 [Example I-1158]
48 | > 100000 | CC(=O)c1ccccc1-c1cc(C2=CCCN(C(C)=O)C2)c(F)c2[nH]c(C(=O)N(C)C)cc12 [Example I-1097]
49 | 100 to 1000 | CCOC(=O)c1cc2ccc(N3CCN(C(=O)c4cc5c(-c6ccccc6OC)cc(C6=CCCN(C(=O)CCn7ccnn7)C6)c(F)c5[nH]4)CC3)cn2c1 [Example I-903]
50 | < 100 | CN(C)C(=O)c1cc2cc(C3=CCCN(C(=O)CCn4ccnn4)C3)cc(NCc3cccc4ncccc34)c2o1 [Example I-871]
51 | 100 to 1000 | CCc1ccccc1N1CCN(C(=O)c2cc3c(-c4ccccc4OC)cc(C4=CCCN(C(=O)CCn5ccnn5)C4)c(F)c3[nH]2)CC1 [Example I-969]
52 | < 100 | COc1cc(F)cnc1N1CCN(C(=O)c2cc3c(C=CC(C)(C)O)cc(C4=CCCN(C(=O)CCn5ccnn5)C4)c(F)c3[nH]2)CC1 [Example I-1110]
53 | < 100 | COc1ccccc1-c1cc(C2=CCCN(C(=O)CCn3ccnn3)C2)c(F)c2[nH]c(C(=O)N3CCN(c4ncc(N5CCCCC5)cc4OC4CC4)CC3)cc12 [Example I-961]
54 | < 100 | COC(=O)N1CCN(C(=O)c2cc3c(-c4ccccc4OC)cc(C4=CCCN(C(=O)CCn5ccnn5)C4)c(F)c3[nH]2)CC1 [Example I-988]
55 | < 100 | COc1ccccc1-c1cc(C2=CCCN(C(=O)CCn3ccnn3)C2)c(F)c2[nH]c(C(=O)N3CCN(Cc4ccncc4)CC3)cc12 [Example I-858]
